Measured values: patent publication US4202891A, “15-Oxygenated sterol compounds and the use of such compounds to inhibit the biosynthesis of sterols” (priority 1977, dated 1980)

Legend:
[1] = Adverse observations in rats on 0.2% ketone diet; assay type: in vivo, rat (male, Sprague-Dawley); details: 0.2% in diet
Method: (§1) Another experiment following essentially the procedure of Example 43 was performed in which the 5α-cholest-8(14)-en-3β-ol-15-one was incorporated into the Cholesterol Free Test Diet at a concentration of 0.2%.

[2] = test system: serum cholesterol; experiment: Serum cholesterol concentration in rats, sterol in Cholesterol Free Test Diet (Examples 43, 46); assay type: in vivo, rat (male, Sprague-Dawley)
From the text: Male rats of the Sprague-Dawley strain were purchased from Sprague-Dawley Farms (Madison, Wisconsin). The rats were maintained on a light (7:00 A.M.-5:30 P.M.)--dark (5:30 P.M.-7:00 A.M.) cycle and fed a Cholesterol Free Test Diet (United States Biochemical Corporation, Cleveland, Ohio) for a period of 13 days prior to the initiation of the experimental period. Six days prior to the initiation of the experimental period blood samples were taken for assay of serum cholesterol concentration and, based upon the results of these analyses, rats were divided into 3 groups with approximately the same mean serum cholesterol concentration. The rats were then individually housed in metabolic cages (Econo-Metabolism Units, Maryland Plastics, New York, New York) for 6 days prior to the initiation of the experimental period. The animals were maintained on the light-dark cycle throughout the experimental period.
Blood samples were taken from the tail vein between 8:15 A.M. and 9:30 A.M. and at no time was more than ~0.5 ml of blood removed. Serum was obtained by centrifugation of the blood using Sure-Sep Junior (General Diagnostics, Division of Warner Lambert Company, Morris Plains, New Jersey) for 20 min at 2000-2500 rpm in a table top centrifuge (Dynac, Clay Adams Model 0091). Serum cholesterol concentration was assayed by a modification of the Cholesterol Auto Test (Bio-Dynamics, BMC Division) as described in Bio-Dynamics/bmc Cholesterol Instruction (revised December, 1975).
5α-Cholest-8(14)-en-3β-ol-15-one (500 mg), prepared and purified as described in Example 1, was added in small portions to 500 g of the Cholesterol Free Test Diet in a 2 liter glass stoppered bottle. After each addition of the sterol to the diet, the bottle was rolled and shaken thoroughly. The resulting 0.1% diet with respect to the 5α-cholest-8(14)-en-3β-ol-15-one was stored at 4° C. Prior to use in feeding, the diet was allowed to warm to room temperature (~25° C.).
2. Ketone group--7 rats with free access to the Cholesterol Free Test Diet containing 0.1% 5α-cholest-8(14)-en-3β-ol-15-one.
as §1

[3] = test system: sterol biosynthesis in L cells; experiment: Inhibition of sterol synthesis from [1-14C]acetate in L cell cultures; assay type: cell-based; details: Mus musculus; L cell cultures; read-out: Concentrations Required for 50% Inhibition of Sterol Synthesis
Procedure, shortened: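 Mouse L cells (NCTC clone 929 subline) in serum-free defined medium, preincubated 4 h with 15-oxygenated sterols, then given [1-14C]acetate at 4 μmoles per ml (4 μCi per ml). Sterol synthesis expressed as [14C]sterols/[14C]fatty acids ratio; 50% inhibitory concentration located over at least 4 compound concentrations.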

[4] = test system: HMG-CoA reductase; experiment: Reduction of the activity of HMG-CoA reductase in primary cultures of liver cells; assay type: cell-based, mouse; details: read-out: Concentrations Required for 50% Reduction of the Activity of HMG-CoA Reductase
Method: The primary liver cell cultures were prepared from 16-day-old (C57BL/6J fetuses and grown in chemically defined medium (serum-free) as described in the above cited publications. The L cells, a subline of NCTC clone 929 mouse fibroblasts, were grown in chemically defined medium (serum-free) as described in the publications. These L cells are transformed fibroblasts which are regarded as malignant since they will grow as tumors if injected into the mouse strain from which they were initially obtained.
The preparation of steroid-containing media, procedures for assays of the conversion of [1-^14 C]acetate into digitonin-precipitable sterols, fatty acids, and CO2 and methods for the measurement of DNA, protein, and HMG-CoA reductase were as described in the published articles. L cell cultures were preincubated with the 15-oxygenated sterols and their derivatives for 4 hours, then [1-^14 C]acetate was added at a concentration of 4 μmoles per ml (4 μCi per ml); or the L cell cultures were incubated for 5 hours with the 15-oxygenated sterols before they were harvested for determination of microsomal HMG-CoA reductase activity.
Conditions for incubating the 15-oxygenated sterols or their derivatives with liver cell cultures were similar to those described for L cell cultures except that the cultures were incubated with the test compounds for 12 hours before labeled acetate was added or before they were harvested for enzyme assay.
A number of the 15-oxygenated sterols have also been tested with respect to their effects on the activity and/or levels of the enzyme HMG-CoA reductase (3-hydroxy-3-methylglutaryl coenzyme A reductase) in the L cells and in the liver cells. As noted previously, this enzyme catalyzes the reduction of 3-hydroxy-3-methylglutaryl coenzyme A to yield mevalonic acid, an essential intermediate in the biosynthesis of sterols and of a number of other essential compounds in cells.
Using the technique described by Kandutsch and Chen in the article cited in the previous example, the concentrations of various 15-oxygenated sterols required to reduce the levels of activity of HMG-CoA reductase by 50% was determined in the cells of the L cells in culture and of the primary cultures of liver cells.

[5] = 0.1% in diet, day 4, listed as Ketone
[6] = 0.1% in diet, day 8, listed as Ketone

SMILES: CC(C)CCC[C@@H](C)[C@H]1CC(=O)C2=C3CC[C@H]4C[C@@H](O)CC[C@]4(C)[C@H]3CC[C@@]21C [5α-Cholest-8(14)-en-3β-ol-15-one, 5α-cholest-8(14)-en-3β-ol-15-one]
- diarrhea ([1]; day 8): 4 of the rats in the ketone group were developing diarrhea
- death ([1]; day 9): One of these rats died the following day
- loose stools ([1]; day 9): Two other rats in this group showed loose stools on day 9
- effect on serum cholesterol concentrations (in words) ([2]; 0.1% in diet): marked effect in lowering the serum cholesterol concentrations
- Serum cholesterol concentration ([2]; 0.1% in diet, day 0): 71.2 ± 0.9 mg per 100 ml
- Serum cholesterol concentration ([2]; 0.1% in diet, day 4): 50.1 mg per 100 ml
- Serum cholesterol concentration [2, 5]: 50.1 ± 2.3 mg per 100 ml
- Serum cholesterol concentration, percentage of initial levels in individual rats [2, 5]: 70.5 ± 3.6%
- Serum cholesterol concentration, percentage of initial levels in individual rats ([2]; 0.1% in diet, day 4, listed as ketone): 70.5%
- Serum cholesterol concentration ([2]; 0.1% in diet, day 8): 36.9 mg per 100 ml
- Serum cholesterol concentration [2, 6]: 36.9 ± 3.3 mg per 100 ml
- Serum cholesterol concentration, percentage of initial levels in individual rats [2, 6]: 51.8 ± 4.4%
- Serum cholesterol concentration, percentage of initial levels in individual rats ([2]; 0.1% in diet, day 8, listed as ketone): 51.8%
- effect on serum cholesterol concentration (in words) ([2]; 0.2% in diet): marked effect on the serum cholesterol concentration
- Serum cholesterol concentration ([2]; 0.2% in diet, day 0): 80.5 ± 2.8 mg per 100 ml
- Serum cholesterol concentration ([2]; 0.2% in diet, day 4): 73.2 mg per 100 ml
- Serum cholesterol levels, percentage of initial levels in individual rats ([2]; 0.2% in diet, day 4): 91.6 ± 4.3%
- Serum cholesterol concentration ([2]; 0.2% in diet, day 4, listed as Ketone): 73.2 ± 3.0 mg per 100 ml
- Serum cholesterol concentration ([2]; 0.2% in diet, day 7): 32.2 mg per 100 ml
- Serum cholesterol levels, percentage of initial levels in individual rats ([2]; 0.2% in diet, day 7): 40.6 ± 7.9%
- Serum cholesterol concentration ([2]; 0.2% in diet, day 7, listed as Ketone): 32.2 ± 5.9 mg per 100 ml
- Serum cholesterol concentration ([2]; 0.2% in diet, day 9): 30.3 mg per 100 ml
- Serum cholesterol levels, percentage of initial levels in individual rats ([2]; 0.2% in diet, day 9): 37.9 ± 8.8%
- Serum cholesterol concentration ([2]; 0.2% in diet, day 9, listed as Ketone): 30.3 ± 6.2 mg per 100 ml
- IC50 [3]: 100 nM
- IC50 [4]: 4000 nM
